From patent US6632816B1, “Aromatic derivatives as HIV aspartyl protease inhibitors” (Pharmacor Inc., priority 2002, dated 2003) come the findings set out here.

For experiment [1], the system named is HIV-1 laboratory viral strain NL4.3 (wild type virus). As to the kind of experiment: Anti-viral assay in vitro (MTT, infected MT-4 cells). Format: cell-based. The note with it: Human immunodeficiency virus 1, MT4, 144 h. How it is done: Anti-viral and Cytotoxicity Assays In Vitro
To evaluate the EC50 of our compounds, various drug concentrations are incubated with the infected cell for six days and then the metabolic activity of the cells is monitored by the MTT assay. (See A. J. Japour et al, Antimicrobial Agents and Chemotherapy, 37, 1095-1101, 1993 and R. Pauwels et al. Journal of Virological Methods, 20, 309-321, 1988)
We use the laboratory viral strain NL4.3 as wild type virus and the cell line used is MT-4 which is a T-cell line highly sensitive to HIV-1. We also use some WT clinical strains. To address the resistance issue we assay the inhibitors with NL4.3 mutants which are designed to be resistant to specific commercially,available inhibitors

The target of another experiment is HIV protease (Human immunodeficiency virus type 1 group M subtype B, UniProt P04585). Put plainly: biochemical.
Where [2] appears, read: MT-4 cells infected with NL4.3, six days, MTT assay, read-out: EC50.

In general, EC50 refers to the concentration that produces a half-maximal response. One may read the Ki as the equilibrium dissociation constant of an inhibitor or competing ligand from its target.

Like-named read-outs stand apart in the source and are kept apart here.

Text for HIV protease: Enzymatic Assay for Determining the Inhibition Constant (Ki) of Synthetic Compounds Targeting the HIV Protease
This is a fluorometric assay based on the cleavage by protease of a substrate carrying a donor group (EDANS) and an acceptor group (DABCYL) on each side of the cleavage site, interacting together through fluorescence resonance energy transfer (FRET) as described by Matayoshi et al. (Science 247:954-954, 1990).
After calculation of Vo and Vi, the inhibition constant (Ki) of the compound is determined using the equation of Henderson: [formula]
where Vo=the enzyme's initial velocity
Vi=the enzyme velocity in the presence of the inhibitory compound,
[I]=inhibitor concentration, [S]=substrate concentration,
Km=Michaelis-Menten constant and Kiapp=apparent Ki
Graphs are traced and the Ki determined using GraphPad Prism software v.

On to `CC(C)CN([C@H](CO)CCCNC(=O)[C@@H](NC(=O)N1CCOCC1)C(c1ccccc1)c1ccccc1)S(=O)(=O)c1ccc(N)cc1` [Example 9, (1S,4S)-Morpholine-4-carboxylic Acid (1-{4-[(4-Amino-benzenesulfonyl)-isobutyl-amino]-5-hydroxy-pentylcarbamoyl}-2,2-diphenyl-ethyl)-amide], for which the EC50 in experiment [1] (setting [2]) came out at 1300 nM. Affinity at HIV protease was put at a Ki of 4.2 nM.
Regarding `COC(=O)N[C@H](C(=O)NCCC[C@@H](CO)N(CC(C)C)S(=O)(=O)c1ccc(N)cc1)C(c1ccccc1)c1ccccc1` [Example 10, (1S,4S)-(1-{4-[(4-Amino-benzenesulfonyl)-isobutyl-amino]-5-hydroxy-pentylcarbamoyl}-2,2-diphenyl-ethyl)-carbamic Acid Methyl Ester], in experiment [1] (setting [2]), the EC50 amounted to 514 nM. Moreover, on HIV protease, the Ki amounted to 5 nM.
For `COC(=O)C(=O)N[C@@H](Cc1cccc2ccccc12)C(=O)NCCC[C@@H](CO)N(CC(C)C)S(=O)(=O)c1ccc(N)cc1` [Example 11, (1S,4S)-N-(1-{4-[(4-Amino-benzenesulfonyl)-isobutyl-amino]-5-hydroxy-pentylcarbamoyl}-2-naphthalen-1-yl-ethyl)-oxalamic Acid Methyl Ester], in that order: 64000 nM and 5 nM.
The corresponding values for `COC(=O)N[C@@H](Cc1ccccc1-c1ccc(OC)cc1)C(=O)NCCCC[C@@H](CO)N(CC(C)C)S(=O)(=O)c1ccc(N)cc1` [Example 31, (1S,5S)-[1-{5-[(4-Amino-benzenesulfonyl)-isobutyl-amino]-6-hydroxy-hexylcarbamoyl}-2-(4′-methoxy-biphenyl-2-yl)-ethyl]-carbamic Acid Methyl Ester] are 118 nM and 0.667 nM.
The corresponding values for `CC(C)CN([C@H](CO)CCCCNC(=O)[C@H](Cc1cccc2ccccc12)NC(=O)N1CCOCC1)S(=O)(=O)c1ccc(N)cc1` [Example 32, (1S,5S)-Morpholine-4-carboxylic Acid (1-{5-[(4-Amino-benzenesulfonyl)-isobutyl-amino]-6-hydroxy-hexylcarbamoyl}-2-naphthalen-1-yl-ethyl)-amide] are 30 nM and 0.782 nM.
As to `CC(C)CN([C@H](CO)CCCCNC(=O)[C@H](Cc1ccc2ccccc2c1)NC(=O)N1CCOCC1)S(=O)(=O)c1ccc(N)cc1` [Example 33, (1S,5S)-Morpholine-4-carboxylic Acid (1-{5-[(4-Amino-benzenesulfonyl)-isobutyl-amino]-6-hydroxy-hexylcarbamoyl}-2-naphthalen-2-yl-ethyl)-amide], in experiment [1] (setting [2]), the EC50 is 92 nM. Further, the affinity on HIV protease corresponds to a Ki of 0.8 nM.
In the case of `COC(=O)N[C@H](C(=O)NCCCC[C@@H](CO)N(CC(C)C)S(=O)(=O)c1ccc(N)cc1)C(c1ccccc1)c1ccccc1` [Example 34, (1S,5S)-(1-{5-[(4-Amino-benzenesulfonyl)-isobutyl-amino]-6-hydroxy-hexylcarbamoyl}-2,2-diphenyl-ethyl)-carbamic Acid Methyl Ester], the concentration giving a half-maximal response (EC50) in experiment [1] (setting [2]) amounted to 12 nM. This compound gave a Ki on HIV protease of 0.5 nM.
Regarding `COc1ccc(S(=O)(=O)N(CC(C)C)[C@H](CO)CCCCNC(=O)[C@H](Cc2ccc3ccccc3c2)NC(=O)N2CCOCC2)cc1` [Example 35, (1S,5S)-Morpholine-4-carboxylic Acid (1-{6-Hydroxy-5-[isobutyl-(4-methoxy-benzenesulfonyl)-amino]-hexylcarbamoyl}-2-naphthalen-2-yl-ethyl)-amide], in experiment [1], a half-maximal response (EC50) required 275 nM. Moreover, the Ki on HIV protease was 1.3 nM.
For `COC(=O)N[C@@H](Cc1ccccc1-c1ccc(OC)cc1)C(=O)NCCCC[C@@H](CO)N(CC(C)C)S(=O)(=O)c1ccc(OC)cc1` [Example 36, (1S,5S)-[1-{6-Hydroxy-5-[isobutyl-(4-methoxy-benzenesulfonyl)-amino]-hexylcarbamoyl}-2-(4′-methoxy-biphenyl-2-yl)-ethyl]-carbamic Acid Methyl Ester], the midpoint of the response in experiment [1], the EC50, lay at 2180 nM. Besides, the Ki on HIV protease stood at 3.2 nM.
On to `CC(C)CN(C(CO)CCCCNC(=O)C(Cc1ccc2ccccc2c1)NC(=O)C1CCOC1)S(=O)(=O)c1ccc(N)cc1` [Example 37, (1S,3R,S,5S)-Tetrahydro-furan-3-carboxylic Acid (1-{5-[(4-Amino-benzenesulfonyl)-isobutyl-amino]-6-hydroxy-hexylcarbamoyl}-2-naphthalen-2-yl-ethyl)-amide], for which, in experiment [1] (setting [2]), the EC50 worked out at 325 nM. At HIV protease, the affinity corresponds to a Ki of 2.7 nM.
As for `COc1ccc(-c2ccccc2C[C@H](NC(=O)N2CCOCC2)C(=O)NCCCC[C@@H](CO)N(CC(C)C)S(=O)(=O)c2ccc(N)cc2)cc1` [Example 38, (1S,5S)-Morpholine-4-carboxylic Acid [1-{5-[(4-Amino-benzenesulfonyl)-isobutyl-amino]-6-hydroxy-hexylcarbamoyl}-2-(4′-methoxy-biphenyl-2-yl)-ethyl]-amide], in experiment [1] (setting [2]), the EC50 stood at 93 nM. Moreover, at HIV protease, the inhibitory constant (Ki) was 0.533 nM.
Regarding `COC(=O)N[C@@H](Cc1ccccc1-c1ccccc1)C(=O)NCCCC[C@@H](CO)N(CC(C)C)S(=O)(=O)c1ccc(N)cc1` [Example 39, (1S,5S)-(1-{5-[(4-Amino-benzenesulfonyl)-isobutyl-amino]-6-hydroxy-hexylcarbamoyl}-2-biphenyl-2-yl-ethyl)-carbamic Acid Methyl Ester], the EC50 in experiment [1] (setting [2]) came to 200 nM. The affinity on HIV protease corresponds to a Ki of 0.521 nM.
`CC(C)CN([C@H](CO)CCCCNC(=O)[C@@H](NC(=O)N1CCOCC1)C(c1ccccc1)c1ccccc1)S(=O)(=O)c1ccc(N)cc1` [Example 40, (1S,5S)-Morpholine-4-carboxylic Acid (1-{5-[(4-Amino-benzenesulfonyl)-isobutyl-amino]-6-hydroxy-hexylcarbamoyl}-2,2-diphenyl-ethyl)-amide]: in experiment [1] (setting [2]), the EC50 stood at 78 nM. On HIV protease, this compound showed a Ki of 0.512 nM.
With `CC(C)CN([C@H](CO)CCCCNC(=O)[C@H](Cc1ccc2ccccc2c1)NC(=O)N(C)C)S(=O)(=O)c1ccc(N)cc1` [Example 41, (2S,5S)-N-{5-[(4-Amino-benzenesulfonyl)-isobutyl-amino]-6-hydroxy-hexyl}-2-(3,3-dimethyl-ureido)-3-naphthalen-2-yl-propionamide], the concentration for a half-maximal effect (EC50) in experiment [1] (setting [2]) turned out to be 79 nM. Also, the Ki at HIV protease amounted to 1.1 nM.
As for `CC(C)CN([C@H](CO)CCCCNC(=O)[C@H](Cc1ccccc1-c1ccccc1)NC(=O)N1CCOCC1)S(=O)(=O)c1ccc(N)cc1` [Example 43, (1S,5S)-Morpholine-4-carboxylic Acid (1-{5-[(4-Amino-benzenesulfonyl)-isobutyl-amino]-6-hydroxy-hexylcarbamoyl}-2-biphenyl-2-yl-ethyl)-amide], in experiment [1] (setting [2]), the EC50 is 697 nM. Affinity on HIV protease was put at a Ki of 0.598 nM.
With `CC(C)CN([C@H](CO)CCCCNC(=O)[C@H](Cc1cccc2ccccc12)NC(=O)N1CCOCC1)S(=O)(=O)c1ccc(N)c(Cl)c1` [Example 44, (1S,5S)-Morpholine-4-carboxylic Acid (1-{5-[(4-Amino-3-chloro-benzenesulfonyl)-isobutyl-amino]-6-hydroxy-hexylcarbamoyl}-2-naphthalen-1-yl-ethyl)-amide], the EC50 in experiment [1] (setting [2]) came to 134 nM. Further, the affinity at HIV protease, expressed as Ki, was 0.904 nM.
As for `COc1ccc(S(=O)(=O)N(CC(C)C)[C@H](CO)CCCCNC(=O)[C@H](Cc2cccc3ccccc23)NC(=O)N2CCOCC2)cc1` [Example 45, (1S,5S)-Morpholine-4-carboxylic Acid (1-{6-Hydroxy-5-[isobutyl-(4-methoxy-benzenesulfonyl)-amino]-hexylcarbamoyl}-2-naphthalen-1-yl-ethyl)-amide], the EC50 in experiment [1] (setting [2]) was 597 nM. The compound further had a Ki on HIV protease of 1.5 nM.
As for `CC(C)CN([C@H](CO)CCCCNC(=O)[C@H](Cc1ccc2ccccc2c1)NC(=O)C(C)(C)C)S(=O)(=O)c1ccc(N)cc1` [Example 46, (1S,5S)-N-(1-{5-[(4-Amino-benzenesulfonyl)-isobutyl-amino]-6-hydroxy-hexylcarbamoyl}-2-naphthalen-2-yl-ethyl)-2,2-dimethyl-propionamide], in experiment [1] (setting [2]), the EC50 is 167 nM. This compound also returned a Ki on HIV protease of 0.809 nM.
On to `CC(C)CN([C@H](CO)CCCCNC(=O)[C@H](Cc1ccc2ccccc2c1)NC(=O)C1CC1)S(=O)(=O)c1ccc(N)cc1` [Example 47, (1S,5S)-Cyclopropanecarboxylic Acid (1-{5-[(4-Amino-benzenesulfonyl)-isobutyl-amino]-6-hydroxy-hexylcarbamoyl}-2-naphthalen-2-yl-ethyl)-amide], for which the EC50 in experiment [1] (setting [2]) came out at 323 nM. The same compound returned a Ki on HIV protease of 1.4 nM.
Regarding `CC(=O)N[C@@H](Cc1ccc2ccccc2c1)C(=O)NCCCC[C@@H](CO)N(CC(C)C)S(=O)(=O)c1ccc(N)cc1` [Example 48, (2S,5S)-2-Acetylamino-N-{5-[(4-amino-benzenesulfonyl)-isobutyl-amino]-6-hydroxy-hexyl}-3-naphthalen-2-yl-propionamide], in experiment [1] (setting [2]), the EC50 is 948 nM. The inhibition constant Ki at HIV protease worked out at 3.6 nM.
On to `COC(=O)N[C@H](C(=O)NCCCC[C@@H](CO)N(CC(C)C)S(=O)(=O)c1ccc(N)c(Cl)c1)C(c1ccccc1)c1ccccc1` [Example 50, (1S,5S)-(1-{5-[(4-Amino-3-chloro-benzenesulfonyl)-isobutyl-amino]-6-hydroxy-hexylcarbamoyl}-2,2-diphenyl-ethyl)-carbamic Acid Methyl Ester], for which, in experiment [1] (setting [2]), the EC50 is 95 nM. Besides, on HIV protease, the Ki was 0.776 nM.
The corresponding values for `CC(C)CN([C@H](CO)CCCCNC(=O)[C@H](Cc1ccc2ccccc2c1)NC(=O)N1CCOCC1)S(=O)(=O)c1ccc(N)c(Cl)c1` [Example 51, (1S,5S)-Morpholine-4-carboxylic Acid (1-{5-[(4-Amino-3-chloro-benzenesulfonyl)-isobutyl-amino]-6-hydroxy-hexylcarbamoyl}-2-naphthalen-2-yl-ethyl)-amide] are 194 nM and 0.8 nM.
